# Experimental data taken from patent US20040063710A1, “Ophthalmological preparations” (priority 2000, published 2004).
# Columns and labels:
# [1] = tested on: left atrium of guinea pig; test: Isolated left atrium of guinea pig; conditions: Dose 3 × 10^-5 g/ml
# Method: A left atrium was isolated from a male guinea pig with 200-300 g of body weight soon after striking on the back of its head. The mitral orifice was fixed to the bottom of an organ bath filled with 30 ml of Krebs-Henseleit solution maintained at 35° C. A gas mixture comprising 95% O2 and 5% CO2 was passed through the Krebs-Henseleit solution in the organ bath. Isometric tension was measured by connecting a left auricle of heart and a transducer by a yarn. A resting tension of 0.5 g was given to the atrium, which was then electrically driven with square pulses with duration of 1 msec and voltage of 1.5 times as much as threshold in the rate 2 Hz via dipolar platinum electrodes. After stabilizing the atrium for 30 minutes from its preparation, the compound dissolved in a solvent was added to the organ bath to measure its effect.
# [2] = tested on: retinal ganglion cells; test: Inhibitory effect against retinal ganglion cell death caused by glutamate; assay type: cell-based, Wister rat; conditions: 10^-7 M, 10^-6 M, 10^-5 M MCI-154; 250 μM glutamate, 48 hours culture; versus control group
# Method: In accordance with the method of Otori et al. (Investigative Ophthalmology & Visual Science, Vol. 39, No. 6, 1998), retinal ganglion cells were isolated from a 6 day-old Wister rat, and approximately 300 cells were plated on each cover glass having a diameter of 12 mm with poly-L-lysine and laminin coatings, that was inserted in each well of a 24-well culture plate, and then were cultured for 24 hours. The cells were divided into an untreated group, a control group, and medicament-treated group, each consisting of 2 wells. To the untreated and control groups, a basic culture medium was added, and to the medicament-treated groups, MCI-154 was added at various concentrations. After 4 hours of culture, 250 μM of glutamate was added to all of the groups except for the untreated group, followed by further culture for 48 hours. After the culture for 48 hours, cells were stained with 1 μM calcein acetoxymethyl ester, and the number of cells with neurites growing more than twice as long as the cell body diameter was counted as viable cells under a fluorescence microscope. Independent three experiments were performed in duplicate.
# Medicament-treated group: 10^−7 M, 10^−6 M, and 10^−5 M MCI-154
# Basic culture medium: Neurobasal (Gibco, Grand Island, N.Y.) including 1 mM glutamine, 10 μg/ml gentamycin, and 40 ng/ml […], CNTF, and b-FGF. […]
# [3] = tested on: retinal degeneration caused by transient retinal ischemia; test: Inhibitory effect against retinal degeneration induced by transient retinal ischemia; assay type: in vivo, Wister male rats; conditions: 0.1 mg/kg into caudal vein just before and immediately after ocular hypertension treatment (130 mmHg, 50 minutes); 7 days after; versus control group
# Method: Wister male rats (body weight of about 200 g) was used. Each animal was subjected to sufficient warming treatment by using a thermal plate under anesthesia, and the head was fixed by using a stereotaxic apparatus. In order to induce transient retinal ischemia, IOP was maintained at 130 mmHg for 50 minutes by injecting intraocular irrigating solution into the anterior chamber via the cornea using an infusion tube and 30 G injection needle which were connected to a bottle held at 174 cm above the eyes (ocular hypertension treatment) according to the method of Akaike (Folia Pharmacologica Japonica, 111, pp.97-104(1998)). The ocular hypertension treatment was performed only on the right eye, and the left eye was left untreated. Just before and immediately after the ocular hypertension treatment, a physiological saline or a dose of 0.1 mg/kg of MCI0154 was injected to the caudal vein. Seven days after the ocular hypertension treatment, the animal was sacrificed under anesthesia, and eyeballs were isolated and a light microscopic specimens of horizontal sections of retina were prepared. Under a microscope, thickness of the retina (from inner plexiform layer to outer plexiform layer) was measured using a micrometer. […] 7 days after the ocular hypertension treatment. Data represent means±SEM (standard errors), and the number of rats for each group was 10. […]
smiles,measurement,setting,value
"O=C1CCC(c2ccc(Nc3ccncc3)cc2)=NN1 [MCI-154, 6-[4-(4-pyridylamino)phenyl]-4,5-dihydro-3 (2H)pyridazinone]","Contraction of left atrium of guinea pig, Increase (%)",[1],188%
same,inhibition of retinal ganglion cell death induced by glutamate (viable cells relative to untreated group),[2],significantly inhibits
same,inhibition of retinal degeneration caused by transient retinal ischemia (retinal thickness ratio),[3],significantly inhibits
